Results from patent publication US8703815B2, “Small molecules that covalently modify transthyretin” (The Scripps Research Institute, priority 2009, dated 2014).

What was measured:
[1] = system: WT-TTR cytotoxicity in human IMR-32 neuroblastoma cells; assay: Inhibition of WT-TTR cytotoxicity in IMR-32 cells (resazurin reduction); type: cell-based; conditions: WT-TTR 8 μM, compounds 2, 4, 6 and 8 μM, 24 hours
Experimental: Cell viability was measured after 24 hours by a resazurin reduction assay.
The human neuroblastoma IMR-32 cell line (CCL-127 ATCC) was maintained in Opti-MEM® medium (Invitrogen), supplemented with 5% FBS, 1 mM Hepes buffer, 2 mM L-glutamine, 100 units/mL penicillin, 100 μg/mL streptomycin and 0.05 mg/mL CaCl2 (complete cell medium). Cells were seeded in black wall, clear bottom, tissue culture treated 96-well plates (Costar) at a density of 6,000 cells/well in complete cell medium and incubated overnight (about 18 hours) at 37° C.
Recombinant WT-TTR purified in the cold was used as the cytotoxic insult. The protein was buffer-exchanged in Hanks' Balanced Salt Solution (HBSS, Mediatech, Manassas, Va.) at 10° C. using a Centriprep® filter device (10 kDa MWCO, Millipore). Compounds (16 mM in DMSO) were diluted 1:1000 with WT-TTR (16 μM in HBSS, filter sterilized) or with HBSS only, vortexed and incubated for 18 hours at 37° C. WT-TTR (16 μM in HBSS) containing the same amount of DMSO was prepared in parallel and incubated under the same conditions.
The medium was removed from the cells and replaced immediately by the TTR/compound mixtures or HBSS previously diluted 1:1 in Opti-MEM® supplemented with 0.8 mg/mL BSA, 2 mM Hepes buffer, 4 mM L-glutamine, 200 units/mL penicillin, 200 μg/mL streptomycin and 0.1 mg/mL CaCl2. The cells were incubated 24 hours at 37° C. Cell viability was evaluated by a resazurin reduction assay.
Briefly, 10 μL of resazurin (500 μM, PBS) was added to each well and fluorescence quantified in a plate reader (Ex/Em 530/590 nm, Tecan Safire 2, Austria) after 1 hour of incubation at 37° C. Cell viability was calculated as percentage of fluorescence relative to cells treated only with vehicle (100% viability) after subtraction of blank fluorescence (wells without cells). Averages and standard errors from 2 independently performed studies, each performed at least in triplicate, were calculated using GraphPrism (San Diego, Calif., US).

[2] = molecular target: T1, WT-TTR (Homo sapiens, UniProt P02766); assay: Selectivity of A2 TTR conjugation in HeLa cell lysate (RP-HPLC, LC-MS); type: binding; conditions: WT-TTR 5 μM, A2 15 μM, maximum of 50%
T1 construct: composed of 127-residue β-sheet-rich subunits; made in house; host or cells: E. coli
Experimental: The ability of A2 to form a chemoselective amide bond with the K15 residue of TTR in cell lysate was assessed by RP-HPLC and LC-MS analysis. […] Immunoisolation of TTR affords the expected mass resulting from conjugate formation (14,185 m/z [M+H] for benzoylation by A2).

[3] = Photoisomerization upon irradiation (312 nm, 10 seconds); type: physicochemical
Experimental: Although TTR can bind to small molecules composed of two aromatic rings when the tethered rings are up to 40° out of plane {based on TTR-stilbene crystal structures [Klabunde et al., Nat. Struct. Biol. 2000, 7, 312-321; Connelly et al., Curr. Opin. Struc. Biol. 2010, 20, 54-62; Johnson et al., J. Med. Chem. 2008, 51, 6348-6358; Choi et al., J. Am. Chem. Soc. 2010, 132, 1359-1370; Choi et al., Nat. Chem. Biol. 2010, 6, 133-139; Baures et al., Bioorg. Med. Chem. 1998, 6, 1389-1401; and Baures et al., Bioorg. Med. Chem. 1999, 7, 1339-1347]}, it would be energetically unfavorable to bind the excited singlet state in a conformation where the two aryl rings are oriented perpendicular to one another. Thus, we propose that the increase in fluorescence quantum yield of B2 from 0.09 in buffer to 0.55 in complex with TTR results from the resculpted excited singlet state energy surface of the stilbene in complex with TTR, such that the trans-conformer is the only state of relatively low potential energy [Gorner, H.; Kuhn, H. J. Adv, Photochem. 1995, 19, 1-117; Malkin et al., J. Phys. Chem. 1964, 68, 1153-1163; Saltiel, J. J. Am. Chem. Soc. 1967, 89, 1036-1037; Saltiel et al., J. Am. Chem. Soc. 1972, 94, 6445-6457; Saltiel et al., J. Am. Chem. Soc. 1979, 101, 2982-2996; and Saltiel et al., J. Am. Chem. Soc. 1968, 90, 4759-4760] inhibiting photoisomerization-based relaxation of B2. That B2 binding to TTR inhibits B2 photoisomerization is consistent with the observation that the irradiation of B2 in buffer (Life Technologies, TFX-35M, 312 nm) for 10 seconds affords 60% of the cis isomer, along with other minor photoreaction products, whereas irradiation of B2 bound to TTR yields only 20% cis isomer.
It appears that the increase in fluorescence quantum yield of A2 from 0.00 in buffer to 0.27 in the TTR-(stilbene)n≦2 conjugate is only partly explained by the mechanism proposed for B2 [Gorner, H.; Kuhn, H. J. Adv, Photochem. 1995, 19, 1-117; Malkin et al., J. Phys. Chem. 1964, 68, 1153-1163; Saltiel, J. J. Am. Chem. Soc. 1967, 89, 1036-1037; Saltiel et al., J. Am. Chem. Soc. […]

Compound | inhibition of WT-TTR cytotoxicity to IMR-32 cells (in words) [1] | % of TTR subunits modified in HeLa cell lysate [2] | photoisomerization upon irradiation in buffer (in words) [3]
Cc1cc(/C=C/c2cccc(C(=O)Sc3ccccc3)c2)cc(C)c1O [Compound 2, (E)-S-phenyl 3-(4-hydroxy-3,5-dimethylstyryl)benzothioate] | clearly and dose-dependently inhibits IMR-32 cytotoxicity | – | –
Cc1cc(/C=C/c2cc(C(=O)Sc3ccc(F)cc3)cc(N(C)C)c2)cc(C)c1O [Compound A2, (E)-S-4-fluorophenyl 3-(dimethylamino)-5-(4-hydroxy-3,5-dimethylstyryl)-benzothioate] | – | 49% | does not readily form the cis isomer
Cc1cc(/C=C/c2cccc(C(=O)Oc3ccc(F)cc3)c2)cc(C)c1O [Compound 4, (E)-4-fluorophenyl 3-(4-hydroxy-3,5-dimethylstyryl)benzoate] | clearly and dose-dependently inhibits IMR-32 cytotoxicity | – | –
